This note sets out measurements from ChEMBL document CHEMBL1139632, “Design and synthesis of new 2-substituted-5-(2-benzylthiophenyl)-1,3,4-oxadiazoles as benzodiazepine receptor agonists” (Bioorg Med Chem Lett, 2005).

Data set [1] deals with Mus musculus. In words: Ability of the compound to protect mice against maximal electric shock (MES) induced convulsion in the presence of 10 mg/kg flumazenil; Range 54.9-102.9. The format is functional.
The species named for data set [2] is Mus musculus. Briefly: Lethal dose of in mice. The format is functional.
The test system of data set [3] is Mus musculus. In words: Ability of the compound to protect mice against pentylenetetrazole induced convulsion in the presence of 10 mg/kg flumazenil; Ranges 60.1-135.9. The format is functional.
Data set [4] is described as follows: Lethal dose in mice. The format is toxicity. The following applies: mouse, in vivo.

As for `Nc1nnc(-c2ccccc2SCc2ccc(F)cc2)o1`, the values for the ED50 in the data set with Mus musculus [1] and in the data set on Mus musculus [3] were above 100 mg/kg and 29.1 mg/kg, respectively. The LD50 in the data set filed under Mus musculus [2] is above 300 mg/kg.
On to `Nc1nnc(-c2ccccc2SCc2ccc(Cl)cc2)o1`, for which the ED50 in the data set with Mus musculus [1] and in the data set with Mus musculus [3] was above 100 mg/kg throughout. In the data set listed under Mus musculus [2], this molecule had an LD50 above 300 mg/kg.
Take `Sc1nnc(-c2ccccc2SCc2ccccc2)o1`: the ED50 in the data set with Mus musculus [1] and in the data set on Mus musculus [3] was above 100 mg/kg throughout. For the same molecule, the LD50 in the data set listed under Mus musculus [2] is above 300 mg/kg.
On to `Nc1nnc(-c2ccccc2SCc2ccccc2)o1`, for which the ED50 worked out at 43.3 mg/kg in the data set on Mus musculus [1] and 89.2 mg/kg in the data set on Mus musculus [3]. This molecule also came in with an LD50 in data set [4] above 300 mg/kg.
For `CCSc1nnc(-c2ccccc2SCc2ccccc2)o1`, the ED50 in the data set on Mus musculus [1] and in the data set on Mus musculus [3] was above 100 mg/kg in each case. Besides, in the data set listed under Mus musculus [2], the 50% lethal dose (LD50) is above 300 mg/kg.
As for `CN1C(=O)CN=C(c2ccccc2)c2cc(Cl)ccc21` [DIAZEPAM], the figures for the ED50 in the data set with Mus musculus [1] and in the data set with Mus musculus [3] were 1.8 mg/kg and 1.4 mg/kg, respectively.
Consider `CSc1nnc(-c2ccccc2SCc2ccccc2)o1`, for which the ED50 was above 100 mg/kg in the data set on Mus musculus [1] and 93.2 mg/kg in the data set with Mus musculus [3]. Further, the LD50 in the data set filed under Mus musculus [2] is above 300 mg/kg.
For `c1ccc(CSc2nnc(-c3ccccc3SCc3ccccc3)o2)cc1`, in that order: above 100 mg/kg, above 100 mg/kg and above 300 mg/kg.
